Data: patent publication US8227604B2, “Hybrid 2-aminotetralin and aryl-substituted piperazine compounds and their use in altering CNS activity” (Wayne State University, priority 2001, dated 2012)
Where a name gives a salt, the structure may show the parent alone.

Tests used:
D1 receptor = target: T1, D1 receptor (Homo sapiens, UniProt P21728); assay: Binding affinity at cloned human D1 receptor, [3H]SCH23390 (LHD1 cells)
T1 construct: expressed in transfected cells; host or cells: LHD1 cells
Method: LHD1 cells (human receptor) are grown and prepared as described for the HA7 cells as described hereafter. The final pellet is resuspended at 5 mg protein/80 ml in 50 mM Tris-HCl containing 120 mM of NaCl, 5 mM of KCl, 2 mM of CaCl2, and 1 mM of MgCl2, pH 7.4. To wells containing 100 μl of test drug or buffer and […] of [^3H]SCH 23390 (0.18 nM final conc.), is added 0.8 ml of cell homogenate (0.05 mg protein/well), and the plates are incubated at […] for 60 min. Nonspecific binding is determined with 1 μM of SCH 23390.

5HT1A receptor = target: T2, 5HT1A receptor (Homo sapiens, UniProt P08908); assay: Binding affinity at cloned human 5HT1A receptor, [3H]8-OH-DPAT (HA7 cells)
T2 construct: expressed in transfected cells; host or cells: HA7 cells
T2 sequence (P08908 1-422): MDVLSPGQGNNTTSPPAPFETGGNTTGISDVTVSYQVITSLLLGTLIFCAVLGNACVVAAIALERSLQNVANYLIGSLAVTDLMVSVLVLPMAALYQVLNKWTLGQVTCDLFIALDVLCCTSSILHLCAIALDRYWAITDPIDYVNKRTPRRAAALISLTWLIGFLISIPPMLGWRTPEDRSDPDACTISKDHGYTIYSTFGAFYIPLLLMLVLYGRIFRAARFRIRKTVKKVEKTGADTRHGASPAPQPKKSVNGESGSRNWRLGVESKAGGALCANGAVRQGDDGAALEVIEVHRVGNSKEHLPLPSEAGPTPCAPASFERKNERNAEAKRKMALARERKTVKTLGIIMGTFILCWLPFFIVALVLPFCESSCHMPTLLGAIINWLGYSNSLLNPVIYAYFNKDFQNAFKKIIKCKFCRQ
Method: HA7 cells (human receptor) are grown to confluence in DMEM containing 10% fetal calf serum, 0.05% penicillin-streptomycin (pen-strep), and […] of G418. The cells are scraped from the 100 by 20 mm plates and centrifuged at 500·G for 5 min. The pellet is homogenized in 50 mM Tris-HCl, pH 7.7, with a polytron, centrifuged at 27,000·G and resuspended at 10 mg protein/ml in the same buffer. The homogenate is then stored at −70° C. in 1-ml aliquots.
The thawed cells are washed once and resuspended at 10 mg protein/80 ml in 25 mM Tris-HCl containing 100 μM of ascorbic acid and 10 mM of nialamide at pH 7.4. The assay is performed in triplicate in a 96-well plate. To 100 μl of [^3H]8-OH-DPAT (0.5 nM final conc), […] of test compound or buffer and 0.8 ml of cell homogenate (0.1 mg protein/well) is added to each well by a Tomtec Quadra 96. Nonspecific binding is defined using 1 μM dihydroergotamine. The plates are incubated at 25° C. for 60 min, then filtered. The incubation is terminated by rapid filtration through glass fiber filter paper on a Tomtec cell harvester. The filters are washed four times with ice-cold 50 mM Tris-HCl, pH 7.7, dried overnight, bagged with 10 ml scintillation cocktail before counting for 2 min. on a Wallac Betaplate 1205 liquid scintillation counter.

5HT2A receptor = target: T3, 5HT2A receptor (Homo sapiens, UniProt P28223); assay: Binding affinity at cloned human 5HT2A receptor, [3H]Ketanserin
T3 construct: expressed in transfected cells
T3 sequence (P28223 whole entry): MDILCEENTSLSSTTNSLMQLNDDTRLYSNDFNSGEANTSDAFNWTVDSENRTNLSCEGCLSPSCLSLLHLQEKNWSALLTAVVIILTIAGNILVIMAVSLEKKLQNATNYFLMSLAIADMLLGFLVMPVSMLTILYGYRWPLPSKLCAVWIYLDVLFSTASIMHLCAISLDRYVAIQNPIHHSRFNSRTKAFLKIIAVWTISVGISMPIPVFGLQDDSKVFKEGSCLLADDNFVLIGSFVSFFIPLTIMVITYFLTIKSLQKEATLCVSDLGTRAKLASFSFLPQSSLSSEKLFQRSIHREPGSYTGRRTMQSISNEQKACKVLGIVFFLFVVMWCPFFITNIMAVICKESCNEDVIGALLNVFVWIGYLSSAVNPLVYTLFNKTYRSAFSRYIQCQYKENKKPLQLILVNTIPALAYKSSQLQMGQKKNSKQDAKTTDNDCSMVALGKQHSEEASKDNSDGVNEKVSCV

5HT2C receptor = target: T4, 5HT2C receptor (Homo sapiens, UniProt P28335); assay: Binding affinity at cloned human 5HT2C receptor, [3H]Mesulergine
T4 construct: expressed in transfected cells
T4 sequence (P28335 33-458): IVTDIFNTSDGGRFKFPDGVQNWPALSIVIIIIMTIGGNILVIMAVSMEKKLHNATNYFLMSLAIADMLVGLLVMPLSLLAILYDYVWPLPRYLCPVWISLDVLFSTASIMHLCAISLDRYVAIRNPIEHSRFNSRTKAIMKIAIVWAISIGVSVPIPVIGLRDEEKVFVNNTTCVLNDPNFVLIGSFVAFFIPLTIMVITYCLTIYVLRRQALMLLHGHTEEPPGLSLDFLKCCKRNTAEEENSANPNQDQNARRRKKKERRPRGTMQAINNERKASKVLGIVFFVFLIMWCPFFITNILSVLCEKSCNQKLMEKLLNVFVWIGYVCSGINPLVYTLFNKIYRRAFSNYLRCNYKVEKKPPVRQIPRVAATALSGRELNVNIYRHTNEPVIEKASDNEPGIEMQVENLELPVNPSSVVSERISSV

D4 receptor [1] = target: T5, D4 receptor (Homo sapiens, UniProt P21917); assay: Binding affinity at cloned human D4 receptor, [3H]YM-09151-2 (CHO D4.4 cells); parameters: expressed in transfected cells; host or cells: CHO D4.4 cells
T5 sequence (P21917 1-419): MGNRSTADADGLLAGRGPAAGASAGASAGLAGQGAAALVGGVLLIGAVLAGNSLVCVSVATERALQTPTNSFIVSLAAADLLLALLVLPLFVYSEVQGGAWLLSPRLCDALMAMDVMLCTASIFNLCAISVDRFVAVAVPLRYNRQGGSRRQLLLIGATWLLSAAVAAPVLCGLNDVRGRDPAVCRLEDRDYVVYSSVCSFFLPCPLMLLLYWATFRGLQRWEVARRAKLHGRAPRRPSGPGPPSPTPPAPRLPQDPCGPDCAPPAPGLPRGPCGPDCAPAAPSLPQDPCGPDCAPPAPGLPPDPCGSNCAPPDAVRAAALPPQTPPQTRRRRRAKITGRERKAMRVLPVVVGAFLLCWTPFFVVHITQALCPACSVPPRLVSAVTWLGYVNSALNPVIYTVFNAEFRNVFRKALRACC
Method: CHO D4.4 cells (human receptors) are grown to confluence in D4 Puromycin medium containing 2 μg/ml puromycin, 5% fetal calf serum and 5 supplemented calf serum and 0.5% pen-strep. The cells are harvested as described for D2 and D3 cells and used at a concentration of 0.15 mg protein/well in the [^3H]YM-09151-2 binding assay.

D2 receptor = target: T6, D2 receptor (Homo sapiens, UniProt P14416); assay: Agonist potency by [3H]thymidine incorporation (mitogenesis), D2; format: cell-based; settings: read-out: D2 % Maxm Stim
T6 construct: expressed in transfected cells
T6 sequence (P14416 whole entry): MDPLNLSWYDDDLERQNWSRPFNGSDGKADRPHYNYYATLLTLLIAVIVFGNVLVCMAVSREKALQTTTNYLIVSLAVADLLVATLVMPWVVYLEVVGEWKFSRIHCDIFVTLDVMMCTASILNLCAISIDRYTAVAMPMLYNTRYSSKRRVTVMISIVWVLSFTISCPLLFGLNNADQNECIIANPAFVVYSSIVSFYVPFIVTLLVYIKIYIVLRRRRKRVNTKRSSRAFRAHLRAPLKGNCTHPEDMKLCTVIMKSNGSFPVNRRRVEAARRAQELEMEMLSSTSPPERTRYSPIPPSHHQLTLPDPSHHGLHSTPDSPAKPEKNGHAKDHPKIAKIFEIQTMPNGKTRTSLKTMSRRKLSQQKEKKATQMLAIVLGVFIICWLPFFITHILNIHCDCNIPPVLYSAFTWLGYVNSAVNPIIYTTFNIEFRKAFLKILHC
Method: (§1) Potential as domaminergenic agonists was assayed by ^3H-thymidine incorporation by standard techniques.
The EC50 values thus indicate intrinsic activities or functional activities of these compounds. The value of % maximum stimulation indicates whether a compound is a partial agonist or full agonist. Generally, a value greater than 80% is considered as a full agonist and anything less than 80% is considered as a partial agonist.

D4 receptor [2] = target: T5, D4 receptor; assay: Agonist potency by [3H]thymidine incorporation (mitogenesis), D4; format: cell-based; parameters: expressed in transfected cells
Method: as §1
The mitogenesis study results presented in Table 7 assay the ability of these ligands to act as agonists or antagonists. The EC50 values thus indicate intrinsic activities or functional activities of these compounds. The value of % maximum stimulation indicates whether a compound is a partial agonist or full agonist. Generally, a value greater than 80% is considered as a full agonist and anything less than 80% is considered as a partial agonist. A compound will be considered antagonist if it produces a negative result (no [3H]thymidine incorporation) in the assay. All the compounds reported in Table 7 are either full agonists or partial agonists.

D2L receptor = target: T7, D2L receptor (Homo sapiens, UniProt P14416); assay: Inhibition constants for binding to cloned D2L receptor expressed in HEK cells, [3H]spiperone
T7 construct: expressed in transfected cells; host or cells: HEK cells
T7 sequence (P14416 whole entry): as above
Method: (§2) Inhibition constants for binding to cloned D2L and D3 receptors expressed in HEK cells by displacing [^3H] spiperone were measured for several compounds.

D3 receptor = D3 receptor (Homo sapiens, UniProt P35462); assay: Inhibition constants for binding to cloned D3 receptor expressed in HEK cells, [3H]spiperone
Chain of D3 receptor (P35462 whole entry): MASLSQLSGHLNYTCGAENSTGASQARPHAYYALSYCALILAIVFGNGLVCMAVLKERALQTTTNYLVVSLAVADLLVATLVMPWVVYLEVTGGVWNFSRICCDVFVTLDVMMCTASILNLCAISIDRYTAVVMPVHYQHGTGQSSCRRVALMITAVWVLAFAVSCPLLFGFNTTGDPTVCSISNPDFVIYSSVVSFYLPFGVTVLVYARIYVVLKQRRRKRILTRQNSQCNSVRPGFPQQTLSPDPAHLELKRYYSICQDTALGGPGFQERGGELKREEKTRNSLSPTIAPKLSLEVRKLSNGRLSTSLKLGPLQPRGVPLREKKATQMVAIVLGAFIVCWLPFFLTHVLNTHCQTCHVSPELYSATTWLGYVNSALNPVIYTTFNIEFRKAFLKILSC
Method: as §2

T1 sequence (P21728 whole entry): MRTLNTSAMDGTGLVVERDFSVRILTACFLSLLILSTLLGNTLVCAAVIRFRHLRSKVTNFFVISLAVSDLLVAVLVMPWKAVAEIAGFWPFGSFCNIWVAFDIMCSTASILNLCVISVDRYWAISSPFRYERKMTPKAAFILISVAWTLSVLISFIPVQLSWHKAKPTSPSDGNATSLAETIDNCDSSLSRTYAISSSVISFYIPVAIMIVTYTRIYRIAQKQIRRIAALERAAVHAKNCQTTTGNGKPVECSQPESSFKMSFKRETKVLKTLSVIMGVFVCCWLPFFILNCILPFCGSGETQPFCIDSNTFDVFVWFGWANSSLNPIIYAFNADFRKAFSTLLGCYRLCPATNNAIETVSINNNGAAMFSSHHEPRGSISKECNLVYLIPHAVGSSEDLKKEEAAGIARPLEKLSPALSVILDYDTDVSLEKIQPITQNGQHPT

Compound: C#CCN(CCCCN1CCN(c2ccccc2)CC1)C1CCc2ccc(O)cc2C1 (stereo not drawn) (as salt: HBr) [Compound 12b, 7-Hydroxy-2-[N-propargyl-(N-(4-phenylpiperazin-1-yl)-butyl)amino]tetralin]
- melting point: 182 to 186 °C

Compound: CCCN(CCCCN1CCN(c2ccccc2)CC1)C1CCc2ccc(O)cc2C1 (stereo not drawn) (as salt: HBr) [Compound 15b, 7-Hydroxyl-2-[N-propyl-(N-(4-phenylpiperazin-1-yl)-butyl)amino]tetralin]
- melting point: 152 to 156 °C

Compound: CCCN(CCCCN1CCN(c2cccc(Cl)c2Cl)CC1)C1CCc2ccc(O)cc2C1 (stereo not drawn) (as salt: HCl) [Compound 19a, 7-Hydroxy-2-[N-propyl-(N-(4-(2,3-dichlorophenyl)-piperazin-1-yl)-butyl)amino]tetralin]
- melting point: 155 to 159 °C

Compound: C#CCN(CCCCN1CCN(c2cccc(Cl)c2Cl)CC1)C1CCc2ccc(O)cc2C1 (stereo not drawn) (as salt: HCl) [Compound 19b, 7-Hydroxy-2-[N-propargyl-(N-(4-(2,3-dichlorophenyl)-piperazin-1-yl)-butyl)amino]tetralin]
- melting point: 180 to 183 °C

Compound: CCCN(CCN1CCN(c2ccccc2)CC1)C1CCc2nc(N)ncc2C1 (stereo not drawn) (as salt: HCl) [Compound 23, 2-Amino-6-[N-propyl-(N-(4-phenylpiperazin-1-yl)-ethyl)amino]-5,6,7,8-tetrahydrobenzopyrimidine]
- melting point: 97 to 102 °C

Compound: CCCN(CCc1ccc(N)cc1)CCN1CCN(c2ccccc2)CC1 (as salt: hydrochloride) [Compound 29a, 4-(2-{[2-(4-Phenyl-piperazin-1-yl)-ethyl]-propyl-amino}-ethyl)-phenylamine]
- melting point: 262 to 264 °C

Compound: CCCN(CCc1cccc(N)c1)CCN1CCN(c2ccccc2)CC1 (as salt: hydrochloride) [Compound 29b, 3-(2-{[2-(4-Phenyl-piperazin-1-yl)-ethyl]-propyl-amino}-ethyl)-phenylamine]
- melting point: 278 to 284 °C

Compound: CCCN(CCc1ccc(NS(=O)(=O)c2ccc(Cl)cc2)cc1)CCN1CCN(c2ccccc2)CC1 (as salt: hydrochloride) [Compound 30a, 4-Chloro-N-[4-(2-{[2-(4-phenyl-piperazin-1-yl)-ethyl]-propyl-amino}-ethyl)-phenyl]-benzenesulfonamide]
- melting point: 224 to 226 °C

Compound: CCCN(CCc1cccc(NS(=O)(=O)c2ccc(Cl)cc2)c1)CCN1CCN(c2ccccc2)CC1 (as salt: hydrochloride) [Compound 30b, 4-Chloro-N-[3-(2-{[2-(4-phenyl-piperazin-1-yl)-ethyl]-propyl-amino}-ethyl)-phenyl]-benzenesulfonamide]
- melting point: 220 to 224 °C

Compound: CCCN(CCC)C1CCc2ccc(O)cc2C1 (stereo not drawn) [Compound 7-OH-DPAT, reference compound]
- Ki (D1 receptor): 2550 ± 1080 nM
- Ki (5HT1A receptor): 193 ± 3.4 nM
- Ki (5HT2A receptor): > 10000 nM
- Ki (5HT2C receptor): > 10000 nM

Compound: C#CCN(CCCCN1CCN(c2ccccc2)CC1)C1CCc2ccc(O)cc2C1 (stereo not drawn) [Compound 12b, 7-Hydroxy-2-[N-propargyl-(N-(4-phenylpiperazin-1-yl)-butyl)amino]tetralin]
- affinity at the D4 receptor (D4 receptor [1]): good affinity
- Ki (D4 receptor [1]; cloned human D4): 28.9 ± 4.41 nM
- Ki (D1 receptor): 677 ± 34 nM
- Ki (5HT1A receptor): 15.2 ± 3.34 nM
- Ki (5HT2A receptor): 260 ± 41.9 nM
- Emax (D2 receptor): 85 ± 6.26%
- EC50 (D4 receptor [2]; [3H]thymidine incorporation): 0.0239 ± 0.00357 µM
- D4 % Maxm Stim (D4 receptor [2]; [3H]thymidine incorporation, >80% full agonist): 85.15 ± 17.64%
- agonist character at the D4 receptor (D4 receptor [2]; functional assay): full agonists
- Ki (5HT2C receptor): 3220 ± 52.9 nM

Compound: CCCN(CCN1CCN(c2ccccc2)CC1)C1CCc2nc(N)ncc2C1 (stereo not drawn) [Compound 23, 2-Amino-6-[N-propyl-(N-(4-phenylpiperazin-1-yl)-ethyl)amino]-5,6,7,8-tetrahydrobenzopyrimidine]
- Ki (D2L receptor): 1.12 ± 0.144 µM

Compound: CCCN(CCN1CCN(c2ccccc2)CC1)C1CCc2sc(N)nc2C1 (stereo not drawn) [Compound 25, 2-Amino-5-[N-propyl-(N-(4-phenylpiperazin-1-yl)-ethyl)amino]-4,5,6,7-tetrahydrobenzothiazole]
- Ki (D2L receptor): 2.08 ± 0.162 µM
- Ki (D3 receptor; D3 expressed in HEK cells): 0.00414 ± 0.00055 µM
- D2L/D3 (D3 receptor; ratio of Ki D2L to Ki D3, HEK cells, [3H]spiperone): 502
